In one assay the target is T1, RyR1 BSM1 mutant (Mus musculus, UniProt E9PZQ0, W4792A).
T1 construct: recombinant RyR1 on HEK293 ER microsomes
Nature of the assay: [3H]simvastatin radioligand binding.

In assay [1] the target is T2, type 1 ryanodine receptor (RyR1) (Mus musculus, UniProt E9PZQ0).
T2 construct: recombinant WT RyR1 on HEK293 ER microsomes (also endogenous RyR1 from mouse skeletal muscle)
Nature of the assay: [3H]simvastatin radioligand binding; single-channel recordings show activation.

Results on 1 molecule are retold here after paper PMC12700559, “Structural basis for simvastatin-induced skeletal muscle weakness associated with type 1 ryanodine receptor T4709M mutation” (The Journal of Clinical Investigation, 2025).

Broadly, the Kd is the concentration at which binding is half-saturated.

T2 sequence (E9PZQ0 whole entry): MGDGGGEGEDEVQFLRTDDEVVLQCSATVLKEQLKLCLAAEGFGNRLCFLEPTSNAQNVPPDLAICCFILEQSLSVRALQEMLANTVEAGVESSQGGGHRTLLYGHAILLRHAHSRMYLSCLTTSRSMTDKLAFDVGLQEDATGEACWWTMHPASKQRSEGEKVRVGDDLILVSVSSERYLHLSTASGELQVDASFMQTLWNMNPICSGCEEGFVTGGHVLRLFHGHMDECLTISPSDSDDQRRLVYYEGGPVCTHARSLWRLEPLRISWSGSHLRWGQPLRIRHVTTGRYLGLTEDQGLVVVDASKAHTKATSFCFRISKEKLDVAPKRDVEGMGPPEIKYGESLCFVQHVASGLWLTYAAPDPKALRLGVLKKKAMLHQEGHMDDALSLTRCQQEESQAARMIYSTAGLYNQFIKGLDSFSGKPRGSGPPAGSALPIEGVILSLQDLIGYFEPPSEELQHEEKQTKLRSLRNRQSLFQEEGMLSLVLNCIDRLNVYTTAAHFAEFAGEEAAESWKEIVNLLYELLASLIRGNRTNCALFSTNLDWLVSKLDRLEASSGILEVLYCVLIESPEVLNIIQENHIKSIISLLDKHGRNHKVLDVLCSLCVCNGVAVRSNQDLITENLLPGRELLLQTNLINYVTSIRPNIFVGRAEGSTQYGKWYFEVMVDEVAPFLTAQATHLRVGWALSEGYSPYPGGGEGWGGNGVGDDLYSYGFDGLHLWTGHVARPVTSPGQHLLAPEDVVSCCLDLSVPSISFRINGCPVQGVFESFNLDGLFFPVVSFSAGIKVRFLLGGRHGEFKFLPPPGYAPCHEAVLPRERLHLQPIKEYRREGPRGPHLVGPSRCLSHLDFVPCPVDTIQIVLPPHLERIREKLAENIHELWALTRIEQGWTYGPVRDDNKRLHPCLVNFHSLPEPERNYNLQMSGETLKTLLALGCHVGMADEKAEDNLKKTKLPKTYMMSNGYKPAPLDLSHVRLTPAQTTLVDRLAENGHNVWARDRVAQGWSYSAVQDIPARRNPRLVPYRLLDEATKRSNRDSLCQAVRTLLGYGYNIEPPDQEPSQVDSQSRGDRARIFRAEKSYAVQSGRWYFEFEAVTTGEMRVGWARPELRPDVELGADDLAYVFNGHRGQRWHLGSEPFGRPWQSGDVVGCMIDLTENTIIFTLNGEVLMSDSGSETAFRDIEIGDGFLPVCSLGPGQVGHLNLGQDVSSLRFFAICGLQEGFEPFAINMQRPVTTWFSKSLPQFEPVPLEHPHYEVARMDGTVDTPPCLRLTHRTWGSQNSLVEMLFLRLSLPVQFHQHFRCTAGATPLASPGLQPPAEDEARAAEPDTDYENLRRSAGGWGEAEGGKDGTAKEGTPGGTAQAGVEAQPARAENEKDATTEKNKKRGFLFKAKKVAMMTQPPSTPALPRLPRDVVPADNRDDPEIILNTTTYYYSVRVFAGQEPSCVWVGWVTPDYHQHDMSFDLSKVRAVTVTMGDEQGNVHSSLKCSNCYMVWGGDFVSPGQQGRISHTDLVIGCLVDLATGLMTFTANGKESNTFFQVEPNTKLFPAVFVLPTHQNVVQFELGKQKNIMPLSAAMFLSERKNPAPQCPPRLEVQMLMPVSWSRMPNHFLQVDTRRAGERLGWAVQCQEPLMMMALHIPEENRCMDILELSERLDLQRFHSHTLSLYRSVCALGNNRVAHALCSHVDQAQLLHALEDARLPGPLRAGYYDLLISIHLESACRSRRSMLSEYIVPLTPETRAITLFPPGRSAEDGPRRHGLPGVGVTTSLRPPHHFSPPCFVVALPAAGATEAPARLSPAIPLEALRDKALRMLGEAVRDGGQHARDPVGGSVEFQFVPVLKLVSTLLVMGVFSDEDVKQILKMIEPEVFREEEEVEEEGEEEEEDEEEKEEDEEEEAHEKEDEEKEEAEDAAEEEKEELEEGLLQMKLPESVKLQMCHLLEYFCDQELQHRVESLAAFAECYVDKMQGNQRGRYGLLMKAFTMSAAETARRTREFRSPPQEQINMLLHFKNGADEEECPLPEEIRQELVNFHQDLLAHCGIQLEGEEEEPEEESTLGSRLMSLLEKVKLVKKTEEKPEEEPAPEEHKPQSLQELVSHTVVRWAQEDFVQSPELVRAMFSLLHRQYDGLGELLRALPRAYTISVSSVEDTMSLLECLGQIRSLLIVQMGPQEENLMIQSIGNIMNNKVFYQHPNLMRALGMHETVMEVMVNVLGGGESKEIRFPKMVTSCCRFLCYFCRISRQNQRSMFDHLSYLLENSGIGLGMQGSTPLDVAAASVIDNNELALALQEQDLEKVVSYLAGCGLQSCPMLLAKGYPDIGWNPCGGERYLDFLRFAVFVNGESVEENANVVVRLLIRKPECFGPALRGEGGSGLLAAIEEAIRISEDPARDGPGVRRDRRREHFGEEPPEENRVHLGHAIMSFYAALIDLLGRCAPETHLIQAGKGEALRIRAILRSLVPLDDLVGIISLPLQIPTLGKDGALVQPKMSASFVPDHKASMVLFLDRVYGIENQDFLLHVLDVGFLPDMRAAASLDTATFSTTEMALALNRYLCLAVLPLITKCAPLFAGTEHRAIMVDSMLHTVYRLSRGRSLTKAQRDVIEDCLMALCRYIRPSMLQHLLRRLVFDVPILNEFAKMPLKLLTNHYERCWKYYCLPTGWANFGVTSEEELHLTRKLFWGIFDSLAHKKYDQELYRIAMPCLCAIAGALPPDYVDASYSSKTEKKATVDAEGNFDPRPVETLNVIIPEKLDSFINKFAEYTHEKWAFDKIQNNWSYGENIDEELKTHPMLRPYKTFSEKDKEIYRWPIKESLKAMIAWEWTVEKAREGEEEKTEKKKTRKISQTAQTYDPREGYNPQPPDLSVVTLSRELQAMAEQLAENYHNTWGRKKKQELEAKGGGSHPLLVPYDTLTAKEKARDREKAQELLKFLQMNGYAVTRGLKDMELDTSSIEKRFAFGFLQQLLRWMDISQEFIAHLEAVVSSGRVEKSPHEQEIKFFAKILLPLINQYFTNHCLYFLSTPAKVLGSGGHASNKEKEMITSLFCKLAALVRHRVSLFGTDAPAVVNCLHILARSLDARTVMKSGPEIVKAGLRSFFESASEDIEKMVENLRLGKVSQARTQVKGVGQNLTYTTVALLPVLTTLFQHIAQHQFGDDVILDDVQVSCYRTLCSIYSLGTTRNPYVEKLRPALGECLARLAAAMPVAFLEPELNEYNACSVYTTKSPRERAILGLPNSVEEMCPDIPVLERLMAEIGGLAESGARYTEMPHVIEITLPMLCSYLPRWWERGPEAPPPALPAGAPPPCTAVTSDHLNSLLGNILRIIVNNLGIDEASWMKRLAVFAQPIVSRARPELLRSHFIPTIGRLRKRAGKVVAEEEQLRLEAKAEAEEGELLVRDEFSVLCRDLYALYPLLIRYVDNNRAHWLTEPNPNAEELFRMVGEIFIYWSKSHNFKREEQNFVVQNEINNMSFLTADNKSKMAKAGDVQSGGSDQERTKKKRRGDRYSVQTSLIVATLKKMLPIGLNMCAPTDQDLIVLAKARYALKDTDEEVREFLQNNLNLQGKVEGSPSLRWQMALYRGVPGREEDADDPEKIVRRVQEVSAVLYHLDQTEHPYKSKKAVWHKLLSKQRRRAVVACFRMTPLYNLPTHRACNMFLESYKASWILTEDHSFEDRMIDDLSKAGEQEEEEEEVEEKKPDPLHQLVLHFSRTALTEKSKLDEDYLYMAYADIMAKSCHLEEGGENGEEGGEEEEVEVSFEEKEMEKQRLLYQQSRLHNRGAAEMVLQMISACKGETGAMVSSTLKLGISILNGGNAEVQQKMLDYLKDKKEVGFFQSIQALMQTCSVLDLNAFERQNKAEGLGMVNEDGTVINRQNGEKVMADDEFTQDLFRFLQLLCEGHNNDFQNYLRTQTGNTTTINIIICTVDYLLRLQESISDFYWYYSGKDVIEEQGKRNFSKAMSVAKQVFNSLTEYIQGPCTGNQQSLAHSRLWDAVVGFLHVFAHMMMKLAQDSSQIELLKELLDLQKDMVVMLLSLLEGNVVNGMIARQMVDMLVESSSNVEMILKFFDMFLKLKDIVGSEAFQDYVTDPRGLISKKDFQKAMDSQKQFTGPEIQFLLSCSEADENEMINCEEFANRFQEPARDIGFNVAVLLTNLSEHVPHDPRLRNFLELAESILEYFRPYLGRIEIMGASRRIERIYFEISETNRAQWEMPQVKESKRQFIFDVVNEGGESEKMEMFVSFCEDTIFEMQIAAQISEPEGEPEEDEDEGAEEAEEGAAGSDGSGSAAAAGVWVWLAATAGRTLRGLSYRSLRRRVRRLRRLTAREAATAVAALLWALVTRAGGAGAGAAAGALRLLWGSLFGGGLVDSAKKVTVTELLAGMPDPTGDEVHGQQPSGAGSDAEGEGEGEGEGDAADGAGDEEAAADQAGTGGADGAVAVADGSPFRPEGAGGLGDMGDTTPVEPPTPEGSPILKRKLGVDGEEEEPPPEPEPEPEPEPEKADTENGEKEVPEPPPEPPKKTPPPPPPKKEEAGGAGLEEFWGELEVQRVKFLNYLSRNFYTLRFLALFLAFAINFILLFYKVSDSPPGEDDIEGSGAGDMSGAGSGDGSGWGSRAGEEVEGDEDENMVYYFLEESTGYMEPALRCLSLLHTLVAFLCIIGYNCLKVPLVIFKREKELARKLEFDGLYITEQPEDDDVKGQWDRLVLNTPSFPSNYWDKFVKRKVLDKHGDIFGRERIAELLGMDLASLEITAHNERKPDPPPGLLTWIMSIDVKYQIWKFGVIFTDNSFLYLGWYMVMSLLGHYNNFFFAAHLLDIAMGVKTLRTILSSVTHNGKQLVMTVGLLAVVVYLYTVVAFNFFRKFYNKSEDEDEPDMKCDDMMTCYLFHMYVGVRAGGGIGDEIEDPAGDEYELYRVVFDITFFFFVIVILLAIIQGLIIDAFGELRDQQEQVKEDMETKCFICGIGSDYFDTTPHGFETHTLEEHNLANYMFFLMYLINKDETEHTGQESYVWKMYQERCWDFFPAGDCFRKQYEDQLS
T1 sequence (E9PZQ0 whole entry W4792A): as the sequence (E9PZQ0 whole entry) above, with W4792A counted along it

`CCC(C)(C)C(=O)O[C@H]1C[C@@H](C)C=C2C=C[C@H](C)[C@H](CC[C@@H](O)C[C@@H](O)CC(=O)O)[C@H]21` [simvastatin acid]: the Kd at RyR1 BSM1 mutant is ~7.1 µM; in assay [1] it was 0.69 µM.
